Experimental data published in US12012398B2, “Bicyclic compounds as androgen receptor modulators” (NIDO BIOSCIENCES, INC., priority 2021, dated 2024).

Tested on: LNCaP cells expressing ARR2PB-FireflyLuc and CMV-RenillaLuc
Assay: LNCaP ARR2PB-FireflyLuc reporter assay, antagonist mode;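 note: IC50 bins in nM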
Assay type: cell-based
Conditions: Homo sapiens, LNCaP, 48 h, +0.5 nM DHT, 48 h at 37° C., read-out: LNCap Antagonist Archive: IC50
Experimental: LNCaP cells expressing ARR2PB-FireflyLuc and CMV-RenillaLuc were treated with indicated concentrations of test compounds, enzalutamide (negative control), or DHT (positive control)+/−0.5 nM DHT for 48 h at 37° C. Fluorescent signals were read with the ImageXpress Micro Confocal System. Remaining activity (antagonist mode) was calculated as % Remaining Activity=100×[(ReadSample−LCave)/(HCave−LCave)] where HC is cells treated with 0.5 nM DHT only and LC is cells treated with 10 uM enzalutamide+0.5 nM DHT. Activation (agonist mode) was calculated as % Activation=100×[(ReadSample−LCave)/(HCave−LCave)] where HO is cells treated with 1 uM DHT and LC is cells treated with DMSO. Dose response curves and IC50 values were calculated using non-linear regression analysis in XLfit.
The designation “A” indicates an IC50 value of >10 μM, “B” indicates an IC50 value between 1 μM and 10 μM; “C” indicates an IC50 value between 100 nM and 1 μM; and “D” indicates an IC50 value of less than 100 nM.

| SMILES | IC50 [nM] |
| --- | --- |
| Cn1c(C(=O)NC23CC(C2)C3)cc2ccncc21 [Example 156, N-(bicyclo[1.1.1]pentan-1-yl)-1-methyl-1H-pyrrolo[2,3-c]pyridine-2-carboxamide] | 100 to 1000 |
| O=C(NC12CC(F)(C1)C2)c1cc2ccnc(Cl)c2n1CCO [Example 138, 7-chloro-N-{3-fluorobicyclo[1.1.1]pentan-1-yl}-1-(2-hydroxyethyl)pyrrolo[2,3-c]pyridine-2-carboxamide] | 1000 to 10000 |
| CN(C(=O)c1cc2cccc(C(F)(F)F)c2[nH]1)c1ccc(C#N)cc1 [Example 27, N-(4-cyanophenyl)-N-methyl-7-(trifluoromethyl)-1H-indole-2-carboxamide] | 1000 to 10000 |
| C[C@@H]1COC[C@H]1NC(=O)c1cc2cccc(Cl)c2[nH]1 [Example 64, 7-chloro-N-[(3S,4S)-4-methyloxolan-3-yl]-1H-indole-2-carboxamide] | 1000 to 10000 |
| CC(C)N(Cc1cnco1)C(=O)c1cc2ccc(F)cc2[nH]1 [Example 6, 6-fluoro-N-isopropyl-N-(1,3-oxazol-5-ylmethyl)-1H-indole-2-carboxamide] | 1000 to 10000 |
| CN(C(=O)c1cc2ccnc(C#N)c2n1C)C12CC(F)(C1)C2 [Example 133, 7-cyano-N-{3-fluorobicyclo[1.1.1]pentan-1-yl}-N,1-dimethylpyrrolo[2,3-c]pyridine-2-carboxamide] | 100 to 1000 |
| Cn1c(C(=O)NC(C)(C)C)cc2ccnc(Cl)c21 [Example 148, N-tert-butyl-7-chloro-1-methylpyrrolo[2,3-c]pyridine-2-carboxamide] | 100 to 1000 |
| NCCn1c(C(=O)NC23CC(F)(C2)C3)cc2ccnc(Cl)c21 [Example 137, 1-(2-aminoethyl)-7-chloro-N-{3-fluorobicyclo[1.1.1]pentan-1-yl}pyrrolo[2,3-c]pyridine-2-carboxamide] | > 10000 |
| COCCN(C(=O)c1cc2ccc(F)cc2[nH]1)c1ccn(C)n1 [Example 57, 6-fluoro-N-(2-methoxyethyl)-N-(1-methyl-1H-pyrazol-3-yl)-1H-indole-2-carboxamide] | > 10000 |
| CN(C(=O)c1cc2ccc(F)cc2[nH]1)c1ccccn1 [Example 13, 6-fluoro-N-methyl-N-(pyridin-2-yl)-1H-indole-2-carboxamide] | 1000 to 10000 |
| CC(C)N(Cc1ccno1)C(=O)c1cc2ccc(F)cc2[nH]1 [Example 8, 6-fluoro-N-isopropyl-N-(1,2-oxazol-5-ylmethyl)-1H-indole-2-carboxamide] | 1000 to 10000 |
| O=C(NC12CC(C1)C2)c1[nH]c2c(Cl)cccc2c1Cl [Example 106, N-[bicyclo[1.1.1]pentan-1-yl]-3,7-dichloro-1H-indole-2-carboxamide] | 1000 to 10000 |
| COCCN(C(=O)c1cc2ccc(F)cc2[nH]1)c1ccccc1 [Example 12, 6-fluoro-N-(2-methoxyethyl)-N-phenyl-1H-indole-2-carboxamide] | 1000 to 10000 |
| CN(C(=O)c1cc2cccc(Cl)c2o1)c1ccccn1 [Example 37, 7-chloro-N-methyl-N-(pyridin-2-yl)-1-benzofuran-2-carboxamide] | > 10000 |
| CN(C(=O)c1cc2cccc(Cl)c2[nH]1)c1ccccn1 [Example 28, 7-chloro-N-methyl-N-(pyridin-2-yl)-1H-indole-2-carboxamide] | 1000 to 10000 |
| CN(C(=O)c1cc2ccnc(Cl)c2[nH]1)C12CC(C1)C2 [Example 95, N-[bicyclo[1.1.1]pentan-1-yl]-7-chloro-N-methyl-1H-pyrrolo[2,3-c]pyridine-2-carboxamide] | 100 to 1000 |
| CC(C)N(CC1CCCO1)C(=O)c1cc2ccc(F)cc2[nH]1 (stereo not drawn) [Example 4, 6-fluoro-N-isopropyl-N-(oxolan-2-ylmethyl)-1H-indole-2-carboxamide] | > 10000 |
| COCCNC(=O)c1cc2ccc(F)cc2n1-c1ncccn1 [Example 54, 6-fluoro-N-(2-methoxyethyl)-1-(pyrimidin-2-yl)-1H-indole-2-carboxamide] | > 10000 |
| CN(C(=O)c1cc2ccc(F)cc2[nH]1)c1ccccc1 [Example 59, 6-fluoro-N-methyl-N-phenyl-1H-indole-2-carboxamide] | 100 to 1000 |
| COCCNC(=O)c1cc2ccc(F)cc2n1-c1ccc(Cl)cn1 [Example 53, 1-(5-chloropyridin-2-yl)-6-fluoro-N-(2-methoxyethyl)-1H-indole-2-carboxamide] | > 10000 |
| CCn1c(C(=O)N(C)C23CC(F)(C2)C3)cc2ccnc(C#N)c21 [Example 151, 7-cyano-1-ethyl-N-(3-fluorobicyclo[1.1.1]pentan-1-yl)-N-methyl-1H-pyrrolo[2,3-c]pyridine-2-carboxamide] | 100 to 1000 |

| SMILES | IC50 [nM] |
| --- | --- |
| Cc1c(C(=O)N(C)C23CC(C2)C3)[nH]c2c(Cl)cccc12 [Example 104, N-[bicyclo[1.1.1]pentan-1-yl]-7-chloro-N,3-dimethyl-1H-indole-2-carboxamide] | > 10000 |
| Cn1c(C(=O)NC23CC(C2)C3)cc2ccc(C#N)cc21 [Example 155, N-(bicyclo[1.1.1]pentan-1-yl)-6-cyano-1-methyl-1H-indole-2-carboxamide] | 1000 to 10000 |
| COCCNC(=O)c1cc2ccc(F)cc2n1-c1ccc(C#N)cn1 [Example 52, 1-(5-cyanopyridin-2-yl)-6-fluoro-N-(2-methoxyethyl)-1H-indole-2-carboxamide] | > 10000 |
| Cn1c(C(=O)NC23CC(F)(C2)C3)cc2ccnc(OC3CC3)c21 [Example 119, 7-cyclopropoxy-N-{3-fluorobicyclo[1.1.1]pentan-1-yl}-1-methylpyrrolo[2,3-c]pyridine-2-carboxamide] | > 10000 |
| O=C(c1cc2ccc(F)cc2[nH]1)N(c1ccc(F)cc1)C1CCOC1 (stereo not drawn) [Example 85, 6-fluoro-N-(4-fluorophenyl)-N-(tetrahydrofuran-3-yl)-1H-indole-2-carboxamide] | < 100 |
| CN(C(=O)c1cc2cccc(C#N)c2[nH]1)C12CC(C1)C2 [Example 94, N-[bicyclo[1.1.1]pentan-1-yl]-7-cyano-N-methyl-1H-indole-2-carboxamide] | 1000 to 10000 |
| Cc1c(C(=O)NC23CC(F)(C2)C3)[nH]c2c(Cl)cccc12 [Example 109, 7-chloro-N-[3-fluorobicyclo[1.1.1]pentan-1-yl]-3-methyl-1H-indole-2-carboxamide] | 100 to 1000 |
| CN(C(=O)c1cc2cccc(C#N)c2[nH]1)c1ccccc1 [Example 21, 7-cyano-N-methyl-N-phenyl-1H-indole-2-carboxamide] | 100 to 1000 |
| N#Cc1ccc(N(C(=O)c2cc3cccc(Cl)c3[nH]2)C2CCOC2)cc1 (stereo not drawn) [Example 83, 7-chloro-N-(4-cyanophenyl)-N-(oxolan-3-yl)-1H-indole-2-carboxamide] | < 100 |
| CCN(C(=O)c1cc2ccnc(Cl)c2[nH]1)C12CC(F)(C1)C2 [Example 117, 7-chloro-N-ethyl-N-{3-fluorobicyclo[1.1.1]pentan-1-yl}-1H-pyrrolo[2,3-c]pyridine-2-carboxamide] | 100 to 1000 |
| COCCN(C(=O)c1cc2cccc(Cl)c2[nH]1)c1ccc(C#N)cc1C [Example 77, 7-chloro-N-(4-cyano-2-methylphenyl)-N-(2-methoxyethyl)-1H-indole-2-carboxamide] | > 10000 |
| Cn1c(C(=O)NC2CC3(CC3)C2)cc2ccnc(Cl)c21 [Example 149, 7-chloro-1-methyl-N-{spiro[2.3]hexan-5-yl}pyrrolo[2,3-c]pyridine-2-carboxamide] | 1000 to 10000 |
| Cn1ccc(-c2c(C(=O)NC34CC(C3)C4)[nH]c3c(Cl)cccc23)n1 [Example 107, N-[bicyclo[1.1.1]pentan-1-yl]-7-chloro-3-(1-methylpyrazol-3-yl)-1H-indole-2-carboxamide] | > 10000 |
| CC(C)N(Cc1cnco1)C(=O)c1cc2cccc(Cl)c2[nH]1 [Example 67, 7-chloro-N-isopropyl-N-(1,3-oxazol-5-ylmethyl)-1H-indole-2-carboxamide] | 100 to 1000 |
| Cc1c(C(=O)NC23CC(C2)C3)[nH]c2c(Cl)cccc12 [Example 102, N-[bicyclo[1.1.1]pentan-1-yl]-7-chloro-3-methyl-1H-indole-2-carboxamide] | 100 to 1000 |
| CN(C(=O)c1cc2cccc(Cl)c2[nH]1)c1ccccc1 [Example 19, 7-chloro-N-methyl-N-phenyl-1H-indole-2-carboxamide] | 100 to 1000 |
| Cn1c(C(=O)NC23CC(F)(C2)C3)cc2ccnc(C(F)(F)F)c21 [Example 154, N-(3-fluorobicyclo[1.1.1]pentan-1-yl)-1-methyl-7-(trifluoromethyl)-1H-pyrrolo[2,3-c]pyridine-2-carboxamide] | 1000 to 10000 |
| CN(C(=O)c1cc2ccc(F)cc2[nH]1)c1ccc(C#N)cc1 [Example 17, N-(4-cyanophenyl)-6-fluoro-N-methyl-1H-indole-2-carboxamide] | 1000 to 10000 |
| CC1(C)CC(NC(=O)c2cc3cccc(Cl)c3[nH]2)CO1 (stereo not drawn) [Example 63, 7-chloro-N-(5,5-dimethyloxolan-3-yl)-1H-indole-2-carboxamide] | > 10000 |
| C[C@H]1COC[C@H]1NC(=O)c1cc2cccc(Cl)c2[nH]1 [Example 65, 7-chloro-N-[(3S,4R)-4-methyloxolan-3-yl]-1H-indole-2-carboxamide] | 1000 to 10000 |
| Cc1nc(-c2c(C(=O)N(Cc3ccco3)C(C)C)[nH]c3cc(F)ccc23)ccc1N [Example 1, 3-(5-amino-6-methylpyridin-2-yl)-6-fluoro-N-(furan-2-ylmethyl)-N-isopropyl-1H-indole-2-carboxamide] | > 10000 |
